Values joined by “and” are separate entries in the source; they are usually repeats but may differ in a detail not shown here. Equal values may be shown once. “Also recorded” adds a separate entry of the source.
Tests used:
[1] = cited from earlier work; for hepatic damage: long term use
patients = details: human, in vivo, 3 mg/kg/day; cited from earlier work
C57BL/6 mice [2] = assay: LPS-mediated sepsis: cardiac function by 2D echocardiography (fractional shortening); type: in vivo
Procedure: (§1) LPS (5 mg/kg) (Sigma) was administered intraperitoneally (i.p.) in mice. Control mice were treated with equal volume of saline. Cardiac function was assessed by 2D echocardiography 5-6 hours post-LPS administration and mice were sacrificed 2-3 hours later (7-9 hours post-LPS injection).
(§2) Two-dimensional echocardiography was performed on conscious 10 to 12 week-old male and female (n=5-8 per group) mice (Sonos5500 system; Philips Medical Systems).^129Echocardiographic images were recorded in a digital format. Images were then analyzed off-line by a single observer blinded to the murine genotype.^130

[3] = test system: cardiac muscle of αMHC-PPARγ mice; assay: [3H]palmitic acid oxidation in cardiac muscle of αMHC-PPARγ mice; type: in vivo; details: LPS-treated vs saline-treated αMHC-PPARγ mice
Procedure: as §1
FA oxidation was measured in pieces of hearts isolated from 10-12 week old mice. The heart pieces were incubated at 37° C. for 2 h in modified Krebs-Ringerbuffer (MKR: 115 mM NaCl, 2.6 mM KCl, 1.2 mM KH2PO4, 10 mM NaHCO3,10 mM HEPES, pH 7.4) that contained 2% BSA, […] palmitate and 10 μCi/ml 9,10(n)-[^3H]-palmitate and was gassed with 95% O2 and 5% CO2. Water was then extracted with chloroform:methanol (2:1) extraction. Palmitate oxidation was determined by measuring the amount of ^3H2O in the aqueous phase.

hearts of C57BL/6 mice [4] = assay: Cardiac ATP measurement; type: in vivo; details: LPS 5 mg/kg, 6-8 h
Procedure: as §1

AC16 cells = assay: PPARα gene expression in LPS-treated human cardiomyocyte cell line; type: cell-based; details: LPS treatment alone
Source text: A human ventricular cardiomyocyte-derived cell line, designated AC-16, was kindly provided by M. M. Davidson.^126 Cells were maintained in Dulbecco's Modified Eagle Medium: Nutrient Mixture F-12 (Ham) (DMEM:F12) (Invitrogen) supplemented with fetal bovine serum (10%) and a mixture of penicillin and streptomycin (1%). Prior to infection with recombinant adenoviruses the medium was changed to 2% heat inactivated horse serum and the cells were infected in at least duplicates with control adenovirus that expresses the Green Fluorescent Protein (Ad-GFP) or the adenovirus expressing the constitutively active form of JNK2 (Ad-JNK2α2) at a multiplicity of infection (MOI) of 10. […] To assess gene expression 48 hours post incubation, cell lysates were collected and analyzed for mRNA and protein expression.
Total RNA was purified from cells or hearts using the TRIzol reagent according to the instructions of themanufacturer (Invitrogen). cDNA was synthesized using the SuperScript III First-Strand Synthesis SuperMix (Invitrogen). cDNA was analyzed with quantitative real-time PCR that was performed with SYBR Green PCRCore Reagents (Stratagene). Incorporation of the SYBRgreen dye into the PCR products was monitored in real time withan Mx3000 sequence detection system (Stratagene). […]

C57BL6 mice = assay: Plasma IL-6 protein levels after LPS; type: in vivo; details: LPS 5 mg/kg, 6-8 h
Procedure: An animal model of cardiac septic shock was reproduced by treating 10 week old C57BL6 mice with LPS (5 mg/kg of body) for 6-8 h.

[5] = test system: hearts of αMHC-PPARγ mice; assay: Western blot of pAMPK and pJNK in hearts of αMHC-PPARγ mice; type: in vivo
Procedure: as §1
(§3) Isolated heart tissues or cells were homogenized in PBS containing protease inhibitors and phosphatase inhibitors (Roche, Indianapolis, Ind.). Membrane and cytosolic fractions were separated by ultracentrifugation.20 μg from each fraction was applied to SDS-PAGE and transferred onto nitrocellulose membranes. Antibodies were obtained from Santa Cruz (JNK) and Cell Signaling (phospho-JNK, phospho-AMPK^Thr 172 and total AMPK).

hearts of C57BL/6 mice [6] = assay: Western blot of pJNK, p-cJun and pAMPK in hearts; type: in vivo; details: LPS 5 mg/kg; controls (label LPS) or animals given rosiglitazone 35 mg/kg (label rosiglitazone)
Procedure: as §1, §3

[7] = test system: hearts of αMHC-PPARγ mice; assay: Cardiac ATP levels in αMHC-PPARγ mice; type: in vivo; details: LPS-treated αMHC-PPARγ mice
Procedure: as §1
Cardiac pieces of 10 mg were used to determine ATP levels. Heart pieces were dissolved in ice-cold 0.1% trichloro-acetic acid and centrifuged. Supernatant was resuspended in 50 mM Tris-acetate containing 2 mM EDTA, pH 7.8 and a portion was used to measure ATP. The measurement was performed with the ATP determination kit (Invitrogen) according to the instructions of the manufacturer.

[8] = test system: cardiac RNA from LPS-treated mice; assay: MiR array analysis of cardiac RNA; type: in vivo
Source text: The next experiment assessed whether the cardiac miR (microRNA) profiles of LPS-treated mice resemble the respective profiles in heart failure. (FIG. 5(A)-(C)).

αMHC-PPARγ mice = assay: LPS in αMHC-PPARγ mice: 2D echocardiography (fractional shortening); type: in vivo; details: LPS-treated αMHC-PPARγ mice
Procedure: (§4) All procedures involving animals were approved by the Institutional Animal Care and Use Committee at Columbia University. Mice were maintained under appropriate barrier conditions in a 12 hr light-dark cycle and received food and water ad libitum. The animals that were used for this study were C57BL/6 mice and mice expressing specifically in cardiomyocytes peroxisome proliferator activating receptor-γ (αMHC-PPARγ) that are also on the C57BL/6 background. All studies were performed on the different genotypes with littermates as controls. Hearts from these mice were harvested, flash frozen and stored at −80° C. until further use. All analyses involving animals were performed with at least 5 mice per experimental group.
as §1, §2

C57BL/6 mice [9] = assay: Assessment of survival after lethal dose of LPS; type: in vivo
Source text: Control animals received saline and DMSO instead of LPS and rosiglitazone, respectively.

[10] = test system: cardiac tissue from C57BL/6 mice; assay: Electron microscopy of cardiac mitochondria; type: in vivo; details: LPS vs saline
Source text: Left ventricles from 3-month-old mice were fixed with 2.5% glutaraldehyde in 0.1 M Sorensen's buffer (0.2 M monobasic phosphate/0.2 M dibasic phosphate, 1:4 vol/vol; pH 7.2), postfixed in osmium tetroxide, and embedded in EPON 812 (Electron Microscopy Sciences). Ultrathin sections were stained with uranyl acetate and lead citrate and examined under a JEM-1200ExII electron microscope (JEOL).

hearts of C57BL/6 mice [11] = assay: Cardiac mRNA levels by quantitative real-time PCR after LPS; type: in vivo; details: LPS 5 mg/kg, 6-8 h
[12] = test system: hearts of αMHC-PPARγ mice; assay: Cardiac mRNA levels in LPS-treated αMHC-PPARγ mice; type: in vivo
Procedure: as §4, §1
(§5) Total RNA was purified from cells or hearts using the TRIzol reagent according to the instructions of themanufacturer (Invitrogen). cDNA was synthesized using the SuperScript III First-Strand Synthesis SuperMix (Invitrogen). cDNA was analyzed with quantitative real-time PCR that was performed with SYBR Green PCRCore Reagents (Stratagene). Incorporation of the SYBRgreen dye into the PCR products was monitored in real time withan Mx3000 sequence detection system (Stratagene). Samples were normalized against β-actin.

hearts of C57BL/6 mice [13] = assay: Cardiac mRNA levels by quantitative real-time PCR after LPS; type: in vivo
Procedure: as §1, §5

[14] = test system: cardiac muscle of C57BL/6 mice; assay: FA oxidation ([3H]palmitate oxidation) in heart pieces; type: in vivo; details: LPS 5 mg/kg, 6-8 h
Procedure: as §1

[15] = LPS 15 mg/kg, + DMSO (15 mice, F) or + rosiglitazone 33 mg/kg/day (17 mice, M)
[16] = Saline (no LPS) + rosiglitazone 33 mg/kg/day, 8 mice, M

CCc1ccc(CCOc2ccc(CC3SC(=O)NC3=O)cc2)nc1 (stereo not shown) [Pioglitazone, pioglitazone]
deleterious effects on blood lipids ([1]; in vivo): fewer deleterious effects on blood lipids

Oblimersen
adverse effects in patients (patients): no severe adverse effects

Cc1c(C)c2c(c(C)c1O)CCC(C)(COc1ccc(CC3SC(=O)NC3=O)cc1)O2 (stereo not shown) [troglitazone]
hepatic damage [1]: cause hepatic damage with long term use

Cc1cccc(Nc2cc(Cl)nc(SCC(=O)O)n2)c1C [WY-14643]
improved fractional shortening by (C57BL/6 mice [2]; LPS 5 mg/kg + WY-14643 30 mg/kg, trend, p=0.09): 25%

lipopolysaccharide [LPS]
levels of FAO, increase [3]: 2.6 fold | cardiac ATP, reduced by (hearts of C57BL/6 mice [4]): 44% | PPARα expression in human cardiomyocyte cell line (AC16 cells): reduces PPARα expression | plasma IL-6 protein levels (C57BL6 mice): increased | JNK activation ([5]; LPS 5 mg/kg, αMHC-PPARγ mice): activated JNK | phosphorylated AMPK levels ([5]; LPS-treated αMHC-PPARγ mice): reduced | phospho-AMPK in heart after LPS (hearts of C57BL/6 mice [6]): not stimulated; also recorded: reduced phospho-AMPK | phosphorylation/activation of JNK (and c-Jun) in heart after LPS (hearts of C57BL/6 mice [6]): induced phosphorylation of JNK; also recorded: activated | cardiac ATP content [7]: significantly increased | cardiac ATP levels, increase [7]: 2.2 fold | miRs associated with heart failure (miR-1, -133, -208, -195, -24, -125b, -199a, 214) affected [8]: none | fractional shortening / cardiac function (αMHC-PPARγ mice): remained normal; also recorded: preserved | reduction in fractional shortening (C57BL/6 mice [2]; LPS 5 mg/kg alone vs saline, 2D-echocardiography): 50% | fractional shortening, effect of LPS (C57BL/6 mice [2]; LPS 5 mg/kg of body, 6-8 h, 10 week old mice): reduced fractional shortening | Survivors 24 h (C57BL/6 mice [9]; [15]): 14 | Survivors 36 h (C57BL/6 mice [9]; [15]): 14 | Survivors 48 h (C57BL/6 mice [9]; [15]): 10 | Survivors 60 h (C57BL/6 mice [9]; [15]): 5 | Survivors 72 h (C57BL/6 mice [9]; [15]): 2 | start of dying post-injection (C57BL/6 mice [9]; LPS alone 15 mg/kg i.p.): 36 h | morphology and intracellular arrangement of mitochondria [10]: did not affect | cardiac gene expression of inflammation-associated genes (IL-1α, IL-6 and TNFα) (hearts of C57BL/6 mice [11]): increased | mRNA levels for cardiac PPARα, CD36, LpL, FATP, Cpt1β, PGC-1α and PGC-1β (hearts of C57BL/6 mice [11]): reduced | UCP2 mRNA increase ([12]; LPS): 23.7 fold | UCP3 mRNA increase ([12]; LPS): 17.4 fold | PDK4 mRNA increase ([12]; LPS 5 mg/kg): 5.4 fold | cardiac CD36 gene expression, reduced by ([12]; LPS 5 mg/kg): 93% | cardiac IL-1α mRNA increase ([12]; LPS 5 mg/kg): 23.1 fold and 23 fold | cardiac IL-6 mRNA increase ([12]; LPS 5 mg/kg): 288 fold and 285 fold | cardiac PGC-1β gene expression, reduced by ([12]; LPS 5 mg/kg): 76% | cardiac TNFα mRNA increase ([12]; LPS 5 mg/kg): 12.5 fold | estrogen-related receptor (ERR)α mRNA ([12]; LPS 5 mg/kg): not modulated | perilipin 2 mRNA ([12]; LPS 5 mg/kg): not modulated | perilipin 5 mRNA, reduced by ([12]; LPS 5 mg/kg): 50% | AOX mRNA increase ([12]; LPS 5 mg/kg vs saline): 27.1 fold | Cpt1β mRNA increase ([12]; LPS 5 mg/kg vs saline): 14.3 fold | PGC-1α mRNA increase ([12]; LPS 5 mg/kg vs saline): 30.1 fold | PPARγ mRNA increase ([12]; LPS 5 mg/kg vs saline): 31.6 fold | PPARδ mRNA increase ([12]; LPS 5 mg/kg vs saline): 31.6 fold | cardiac PPARα mRNA reduction ([12]; LPS 5 mg/kg vs saline): 77% and 78% | PDK4 mRNA increase (hearts of C57BL/6 mice [13]; LPS 5 mg/kg alone): 16 fold | cardiac AOX mRNA, increased by (hearts of C57BL/6 mice [13]; LPS 5 mg/kg alone): 42% | cardiac PPARα mRNA levels, reduced by (hearts of C57BL/6 mice [13]; LPS 5 mg/kg alone): 78% | cardiac perilipin 2 mRNA, increased by (hearts of C57BL/6 mice [13]; LPS 5 mg/kg alone): 3.3 | cardiac IL-1α mRNA increase (hearts of C57BL/6 mice [13]; LPS 5 mg/kg alone, qRT-PCR): 90 fold | cardiac IL-6 mRNA increase (hearts of C57BL/6 mice [13]; LPS 5 mg/kg alone, qRT-PCR): 1250 fold | cardiac TNFα mRNA increase (hearts of C57BL/6 mice [13]; LPS 5 mg/kg alone, qRT-PCR): 26 fold | cardiac PPARγ (mRNA) levels, increased by (hearts of C57BL/6 mice [13]; LPS alone, normal C57BL/6 mice): ~60% and 57% | gene expression levels of αMHC and βMHC (hearts of C57BL/6 mice [13]; LPS, hearts of C57BL/6 mice): reduces both αMHC and βMHC | switch from α-MHC isoform to β-MHC (cardiac mRNA) (hearts of C57BL/6 mice [13]; LPS-treated mice): did not indicate such change | cardiac PPARδ mRNA (hearts of C57BL/6 mice [13]; any of the treatment groups (rosiglitazone 35 mg/kg, LPS 5 mg/kg, both)): not modulated | FAO, reduced by [14]: 61%

CN(CCOc1ccc(CC2SC(=O)NC2=O)cc1)c1ccccn1 (stereo not shown) [rosiglitazone]
hepatic damage [1]: cause hepatic damage with long term use | Survivors 24 h (C57BL/6 mice [9]; [15]): 17 | Survivors 36 h (C57BL/6 mice [9]; [15]): 16 | Survivors 48 h (C57BL/6 mice [9]; [15]): 16 | Survivors 60 h (C57BL/6 mice [9]; [15]): 15 | Survivors 72 h (C57BL/6 mice [9]; [15]): 13 | Survivors 24 h (C57BL/6 mice [9]; [16]): 8 | Survivors 36 h (C57BL/6 mice [9]; [16]): 8 | Survivors 48 h (C57BL/6 mice [9]; [16]): 8 | Survivors 60 h (C57BL/6 mice [9]; [16]): 8 | Survivors 72 h (C57BL/6 mice [9]; [16]): 8
